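Five compound concentrations were applied to cells in 96-well plates for 48 hours; endpoints were derived by simple linear interpolation of the resulting dose-response curve. GI50: concentration for 50% inhibition of growth. Definition used: TGI = concentration required for complete inhibition of growth.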
Columns and labels:
Experiment in all cases: inhibition of tumour cell growth, NCI panel, 48 h
[1] = tested on: SF-268 CNS
[2] = tested on: SR leukemia
[3] = tested on: SW-620 colon
[4] = tested on: UO-31 renal
[5] = tested on: TK-10 renal
[6] = tested on: EKVX NSCLC
[7] = tested on: OVCAR-3 ovarian
[8] = tested on: CCRF-CEM leukemia
[9] = tested on: SN12C renal

SMILES	GI50 [1] [µM]	TGI [1] [µM]	GI50 [2] [µM]	TGI [2] [µM]	GI50 [3] [µM]	TGI [3] [µM]	GI50 [4] [µM]	TGI [4] [µM]	GI50 [5] [µM]	TGI [5] [µM]	GI50 [6] [µM]	TGI [6] [µM]	GI50 [7] [µM]	TGI [7] [µM]	GI50 [8] [µM]	TGI [8] [µM]	GI50 [9] [µM]	TGI [9] [µM]
CC(C)(C)OC(=O)N(CCCn1c2c(c3ccccc3c1=O)C(=O)c1ccccc1-2)CCN(CCCn1c2c(c3ccccc3c1=O)C(=O)c1ccccc1-2)C(=O)OC(C)(C)C	23.8	> 50	2.26	13.7	49.1	> 50	> 50	> 50	> 50	> 50	> 50	> 50	13.2	> 50	4.93	> 50	39.9	> 50
CNC1=C(Br)C(=O)C2=C(C1=O)C1C3=C(C(=O)C=CC3=O)C2c2ccccc21 (stereo not given)	2.97	> 29.4			2.79	> 29.1	6.73	14.4	10.8	34.4	1.94	3.7	5.29	10.9	0.472	> 100	1.65	3.21
S=C(S)NCCCn1ccnc1		> 100		> 100		> 100		> 100		> 100		> 100		> 100				> 100
CC(=O)OC1C(O)COC(Oc2c(C)c3c4c(c2O)[C@@H](C)CC[C@@H]4[C@@H](C)C[C@H]3C=C(C)C)C1O (stereo not given in full)	12.9	32.7	3.87	19.1			30	> 100	14.7	29			13.5	28.2	7.42	27.4	19.3	44.5
COc1ccc(CNCCCN2C(=O)c3ccc4c5c(ccc(c35)C2=O)C(=O)N(CCCNCCCCNCCCN)C4=O)c(OC)c1OC	0.955	13.2	1.31	17.4	0.448	2.52	4.84	> 100	2.71	12.8	4.05	19.3	1.17	2.48	1.94	17.8		
O=C(Oc1ccccc1Cl)c1cccnc1Nc1ccnc(C(F)(F)F)c1	10.1	33.6			3.72	22.3	14.6	32.6	24.7	70.7	32.6	84.3	16.5	32.6	2.4	6.52	4.03	18
COc1ccc(-c2ccc(=O)oc2-c2cc(OC)c(OC)c(OC)c2)cc1O	0.0606	> 34.8			< 0.0147	> 100	< 0.0208	> 100	62.3	> 100	0.0807	> 100	< 0.01	0.16	0.0219		0.0697	> 100
Cn1c(-c2c(N)n(Cc3ccc(Cl)cc3)c3nc(C#N)c(C#N)nc23)nc2ccccc21	16.3	> 50	8.26	> 50	5.26	> 50	5.35	13.2	6.9	15.8	7.04	46.1	1.37	6.2			2.57	10.3
COc1cc2c(C#N)n3c(c2cc1OC)C(=O)C(c1ccccc1)Oc1ccccc1-3 (stereo not given)	3.32	> 100	2.58	> 100					3.35	21.3			4.48	> 100	2.72	8.51		
CC(C)(C)c1ccc(NC(=O)c2cc(=O)c3ccccc3[nH]2)c(C(C)(C)C)c1O	7.48	22.4	2.13	4.69	8.24	27.1	5.15	17.5	14.5	27.9			4.84	15.9	2.33	8.25	9.81	24.4
COc1ccc(OC)c(-c2cn3nc(-c4c[nH]c5ccc(Br)cc45)sc3n2)c1	2.7	7.6			2.26	5.28	1.67	11.2	3.18	6.54	2.83	11.4	1.96	4.32	3.73	> 100	2.74	10
CCOc1ccc2c(-c3ccnc(Nc4cccc(C(F)(F)F)c4)n3)cnn2n1	7.87	> 19.6			> 25	> 25	> 25	> 25	9.72	> 23.8	> 17.9	> 25	8.57	> 25	> 25	> 25	15.1	> 25
Cc1cc(Cl)ccc1OCC(=O)Oc1c(Cl)c(Cl)c(Cl)c(Cl)c1Cl		> 100		60		> 100		32		69.1		56.4		39				62.9
CN(C)c1ccc2c(SCC(=O)OCC(=O)[C@@]3(O)CC[C@H]4[C@@H]5CCC6=CC(=O)C=C[C@]6(C)[C@H]5C(=O)C[C@@]43C)c3ccc(N(C)C)cc3nc2c1		> 100		4		> 100		24.8		48.8		> 81.2		> 100				> 59.3
O=C(CN1C(=O)c2ccccc2C1=O)OC1C=CCCC1 (stereo not given)		> 100		> 100		> 100		> 100		> 100		> 100				> 100		> 100
O=c1cc(-c2ccccc2)oc2cc(OCc3cn(Cc4ccc(F)cc4)nn3)cc(O)c12	4.32	> 100			> 100	> 100			10.4	28.6	63.8	> 100			> 100	> 100	> 100	> 100
COc1ccc2c(CCNS(=O)(=O)c3ccccc3)c(C(C)=O)[nH]c2c1[N+](=O)[O-]		> 100		> 100		> 100		> 100						> 100		> 100		> 100

Reference: PubChem BioAssay (NCI)
